Measurements published in US7374919B2 (GlycoZym ApS, priority 1998, dated 2008).
No end group written: not given here.

What was measured:
Assay type in all cases: biochemical
β4Gal-T2 = biological target: T1, β4Gal-T2 (Homo sapiens, UniProt O60909); test: β4Gal-T2 galactosyltransferase activity assay (soluble enzyme, media of infected Sf9 cells); details: for donor substrate utilisation by β4Gal-T2 (in words): with the acceptor substrates tested; for inhibition of β4Gal-T2 by high acceptor substrate concentrations: FIGS. 5A and 5B, to higher degree than bovine milk β4Gal-transferase and β4Gal-T3
T1 construct: An expression construct designed to encode amino acid residues 31-372 of β4Gal-T2 was prepared by RT-PCR; secretion signal of vector pAcGP67 (gp67 leader; own knowledge of the vector) (N); made in house; host or cells: Sf9 (Spodoptera frugiperda) cells, baculovirus; unpurified culture supernatant
T1 sequence (O60909 31-372): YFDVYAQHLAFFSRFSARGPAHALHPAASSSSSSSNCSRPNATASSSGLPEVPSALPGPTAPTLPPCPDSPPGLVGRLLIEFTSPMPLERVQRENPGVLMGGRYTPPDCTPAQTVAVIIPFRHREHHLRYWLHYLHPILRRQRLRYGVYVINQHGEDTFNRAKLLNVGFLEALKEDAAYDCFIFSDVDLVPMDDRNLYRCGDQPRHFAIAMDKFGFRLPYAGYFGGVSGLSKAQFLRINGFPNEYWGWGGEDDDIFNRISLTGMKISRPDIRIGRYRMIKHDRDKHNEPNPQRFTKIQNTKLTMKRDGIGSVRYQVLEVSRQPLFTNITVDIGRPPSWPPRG
From the text: (§1) The PCR product were cloned into the BamHI site of pAcGP67 (Pharmingen), and the construct sequenced to verify correct insertion and sequence. The plasmid pAcGP67-β4Gal-T2-sol was co-transfected with Baculo-Goldä DNA (Pharmingen) as described previously (Bennett et al., 1996). Recombinant Baculo-virus were obtained after two successive amplifications in Sf9 cells grown in serum-containing medium, and titres of virus were estimated by titration in 24-well plates with monitoring of enzyme activities. Controls included pAcGP67-β4Gal-T3-sol (Almeida et al., 1997) and pAcGP67-GalNAc-T3-sol (Bennett et al., 1996).
(§2) Standard assays were performed in […] total reaction mixtures containing 25 mM Tris (pH 7.5), 10 mM MnCl2, 0.25% Triton X-100, […] UDP-[^14C]-Gal (2,300 cpm/nmol) (Amersham), and varying concentration of acceptor substrates (Sigma) (see Table I for structures). The soluble constructs were assayed with […] of culture supernatant from infected cells, whereas the full length construct was assayed with 1% Triton X-100 homogenates of washed cells. Bovine milk P1,4Gal-transferase (Sigma) was used as control.
Reaction products were quantified by Dowex-1 chromatography. […] The transfer of Gal was evaluated after precipitation by filtration through Whatman GF/C glass fiber filters.

β4Gal-T3 = biological target: T2, β4Gal-T3 (Homo sapiens, UniProt O60512); test: β4Gal-T3 galactosyltransferase activity assay (soluble enzyme, Sf9 media)
T2 construct: media from Sf9 cells expressing secreted forms of either β4Gal-T2 or -T3 were used as enzyme sources; secretion signal of vector pAcGP67 (gp67 leader; own knowledge of the vector) (N); made in house; host or cells: Sf9 cells, baculovirus; unpurified culture supernatant
T2 sequence (O60512 32-393 limits assumed): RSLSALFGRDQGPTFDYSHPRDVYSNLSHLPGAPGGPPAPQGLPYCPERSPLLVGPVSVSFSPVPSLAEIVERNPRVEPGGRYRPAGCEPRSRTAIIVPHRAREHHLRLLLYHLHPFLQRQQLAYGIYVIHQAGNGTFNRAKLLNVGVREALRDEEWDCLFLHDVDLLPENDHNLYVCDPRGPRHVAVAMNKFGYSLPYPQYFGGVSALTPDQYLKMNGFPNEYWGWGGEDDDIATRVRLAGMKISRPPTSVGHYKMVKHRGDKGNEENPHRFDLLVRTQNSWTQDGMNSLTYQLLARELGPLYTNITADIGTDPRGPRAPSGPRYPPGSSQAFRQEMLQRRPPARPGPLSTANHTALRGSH
Procedure: as §1, with “An expression construct designed to encode amino acid residues 31-372 of β4Gal-T2 was prepared by RT-PCR with mRNA from Colo205 cell line, using the primer pair EBER100FOR (5′-[…]; SEQ ID NO: 9) and EBER114 (5′-[…]; SEQ ID NO: 10) with BamH1 restriction sites (FIG. 2). The PCR” for “The PCR”
as §2
(§3) Reaction products were quantified by Dowex-1 chromatography. Assays with hen egg Ovalbumin (Sigma), asialo-fetuin (Sigma), and asialo-agalacto-fetuin (Sigma, treated with bgalactosidase) were performed with the standard reaction mixture modified to contain […] UDP-Gal, 54 mM NaCl, and 0.5 mg Ovalbumin. The transfer of Gal was evaluated after precipitation by filtration through Whatman GF/C glass fiber filters.

Bovine milk β4Gal-T = biological target: T3, Bovine milk β4Gal-T (Bos taurus, UniProt P08037); test: Bovine milk β4Gal-transferase activity assay (control enzyme)
T3 construct: Purified bovine milk enzyme; purchased Sigma; host or cells: bovine milk
T3 sequence (P08037 79-402 limits assumed): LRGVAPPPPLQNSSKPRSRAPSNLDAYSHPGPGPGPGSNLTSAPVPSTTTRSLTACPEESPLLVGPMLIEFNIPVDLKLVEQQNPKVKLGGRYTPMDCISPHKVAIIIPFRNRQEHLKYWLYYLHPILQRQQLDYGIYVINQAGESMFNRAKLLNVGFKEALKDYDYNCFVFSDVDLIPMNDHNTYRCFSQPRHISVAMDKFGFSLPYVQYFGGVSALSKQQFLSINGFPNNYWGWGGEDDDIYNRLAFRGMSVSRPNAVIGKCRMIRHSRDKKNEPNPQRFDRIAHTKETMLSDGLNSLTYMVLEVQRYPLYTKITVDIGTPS
Procedure: as §2, §3

[1] = substrate concentration 1 mM, media of infected Sf9 cells, background subtracted
[2] = substrate concentration 3 mM, media of infected Sf9 cells, background subtracted
[3] = substrate concentration 9 mM, media of infected Sf9 cells, background subtracted

β4Gal-T2 activity with acceptor substrate (β4Gal-T2; [1]) | β4Gal-T2 activity with acceptor substrate (β4Gal-T2; [2]) | β4Gal-T2 activity with acceptor substrate (β4Gal-T2; [3]) | Compound | further results
1.4 nmol/min/mL | 3.2 nmol/min/mL | 4.8 nmol/min/mL | CC(=O)N[C@H]1C(O)O[C@H](CO)[C@@H](O)[C@@H]1O (stereo partly drawn) [D-GlcNAc] | inhibition of β4Gal-T2 by high acceptor substrate concentrations (β4Gal-T2): inhibited at high concentrations
 | 0.0 nmol/min/mL |  | O=[N+]([O-])c1ccccc1O[C@@H]1O[C@H](CO)[C@H](O)[C@H](O)[C@H]1O [o-Nph-β-D-Gal] | 
3.0 nmol/min/mL | 2.3 nmol/min/mL | 0.9 nmol/min/mL | CC(=O)N[C@H]1[C@H](Oc2ccc([N+](=O)[O-])cc2)O[C@H](CO)[C@@H](O)[C@@H]1O [p-Nph-β-D-GlcNAc] | 
1.2 nmol/min/mL | 1.6 nmol/min/mL | 0.2 nmol/min/mL | CC(=O)N[C@@H]1[C@@H](O)[C@H](O)[C@@H](CO)O[C@H]1Sc1ccc([N+](=O)[O-])cc1 [p-Nph-1-thio-β-D-GlcNAc] | 
0.8 nmol/min/mL | 0.6 nmol/min/mL | 0.4 nmol/min/mL | CC(=O)N[C@H]1[C@H](Oc2ccc3c(C)cc(=O)oc3c2)O[C@H](CO)[C@@H](O)[C@@H]1O [4-Me-lumb-β-D-GlcNAc] | 
0.4 nmol/min/mL | 0.8 nmol/min/mL | 1.5 nmol/min/mL | CC(=O)N[C@H]1[C@@H](Oc2ccccc2[N+](=O)[O-])O[C@H](CO)[C@@H](O)[C@@H]1O [o-Nph-α-D-GlcNAc] | 
5.8 nmol/min/mL | 7.7 nmol/min/mL |  | COC1O[C@H](CO)[C@H](O)[C@H](O[C@@H]2O[C@H](CO)[C@H](O)[C@H](O)[C@H]2NC(C)=O)[C@H]1O (stereo partly drawn) [β-D-GlcNAc-(1-3)-β-D-Gal-1-OMe] | 

The remaining lines, values behind:

Compound | β4Gal-T2 activity with acceptor substrate (β4Gal-T2; [1]) | β4Gal-T2 activity with acceptor substrate (β4Gal-T2; [2]) | β4Gal-T2 activity with acceptor substrate (β4Gal-T2; [3]) | further results
O=C[C@H](O)[C@@H](O)[C@H](O)[C@H](O)CO [glucose] |  |  |  | acceptor substrate of soluble β4Gal-T2 activity (in words) (β4Gal-T2): not an acceptor
Asialo-Fetuin: glycoprotein acceptor, asialo-fetuin (Sigma) |  |  |  | β4Gal-T2 activity with acceptor substrate (β4Gal-T2; glycoproteins at 10 mg/ml): 0.2 nmol/min/mL; β4Gal-T3 activity with acceptor substrate (β4Gal-T3; glycoproteins at 10 mg/ml): 0.0 nmol/min/mL; Bovine milk β4Gal-T activity with acceptor substrate (Bovine milk β4Gal-T; glycoproteins at 10 mg/ml): 0.1 nmol/min/µg
CC(=O)N[C@H]1[C@@H](OP(=O)(O)OP(=O)(O)OC[C@H]2O[C@@H](n3ccc(=O)[nH]c3=O)[C@H](O)[C@@H]2O)O[C@H](CO)[C@H](O)[C@@H]1O [UDP-GalNAc] |  |  |  | donor substrate utilisation by β4Gal-T2 (in words) (β4Gal-T2): did not utilise
CC(=O)N[C@H]1[C@H](OCc2ccccc2)O[C@H](CO)[C@@H](O)[C@@H]1O [Bz-β-D-GlcNAc] | 6.8 nmol/min/mL | 3.6 nmol/min/mL | 1.5 nmol/min/mL | inhibition of β4Gal-T2 by high acceptor substrate concentrations (β4Gal-T2): inhibited at high concentrations; Km (β4Gal-T2; β4Gal-T2, read-out: apparent Km for acceptor substrate): 160 µM; β4Gal-T2 activity with acceptor substrate (β4Gal-T2; β-D-GlcNAc-1-Bz at 0.25 mM): 3.5 nmol/min/mL; β4Gal-T3 activity with acceptor substrate (β4Gal-T3; β-D-GlcNAc-1-Bz at 2 mM): 3.9 nmol/min/mL; Bovine milk β4Gal-T activity with acceptor substrate (Bovine milk β4Gal-T; β-D-GlcNAc-1-Bz at 0.625 mM): 3.4 nmol/min/µg
CC(=O)N[C@H]1[C@@H](OP(=O)(O)OP(=O)(O)OC[C@H]2O[C@@H](n3ccc(=O)[nH]c3=O)[C@H](O)[C@@H]2O)O[C@H](CO)[C@@H](O)[C@@H]1O [UDP-GlcNAc] |  |  |  | donor substrate utilisation by β4Gal-T2 (in words) (β4Gal-T2): did not utilise
CC(=O)N[C@H]1[C@H](OCc2ccccc2)O[C@H](CO)[C@H](O)[C@@H]1O [βGalNAc-benzyl] |  |  |  | acceptor substrate of soluble β4Gal-T2 activity (in words) (β4Gal-T2): not
Asialo-agalacto-Fetuin: glycoprotein acceptor; asialo-fetuin (Sigma) treated with bgalactosidase |  |  |  | β4Gal-T2 activity with acceptor substrate (β4Gal-T2; glycoproteins at 10 mg/ml): 2.8 nmol/min/mL; β4Gal-T3 activity with acceptor substrate (β4Gal-T3; glycoproteins at 10 mg/ml): 0.7 nmol/min/mL; Bovine milk β4Gal-T activity with acceptor substrate (Bovine milk β4Gal-T; glycoproteins at 10 mg/ml): 0.8 nmol/min/µg
*-D-GalNAc-1-(FAPSNYPAL) (not fully specified) [GalNAc-glycopeptide acceptor substrate] |  |  |  | β4Gal-T2 activity with acceptor substrate (β4Gal-T2; glycopeptides at 0.1 mM): 0.0 nmol/min/mL; β4Gal-T3 activity with acceptor substrate (β4Gal-T3; glycopeptides at 0.1 mM): 0.0 nmol/min/mL; Bovine milk β4Gal-T activity with acceptor substrate (Bovine milk β4Gal-T; glycopeptides at 0.1 mM): 0.0 nmol/min/µg
Cc1cc(=O)oc2cc(O[C@@H]3O[C@H](CO)[C@H](O)[C@H](O)[C@H]3O)ccc12 [4-Me-lumb-β-D-Gal] |  | 0.0 nmol/min/mL |  | 
α-lactalbumin |  |  |  | effect of α-lactalbumin on activity with GlcNAc (β4Gal-T2; β4Gal-T2, FIG. 4B): inhibited; concentration of α-lactalbumin to achieve maximum activity with Glc (β4Gal-T2; β4Gal-T2, glucose as acceptor): 0.4 mg/mL; effect of α-lactalbumin on activity with GlcNAc (Bovine milk β4Gal-T; bovine milk enzyme, FIG. 4B): inhibited; concentration of α-lactalbumin to achieve maximum activity with Glc (Bovine milk β4Gal-T; bovine milk enzyme, glucose as acceptor): 0.1 mg/mL
CC(=O)N[C@H]1[C@H](Oc2ccccc2[N+](=O)[O-])O[C@H](CO)[C@H](O)[C@@H]1O [o-Nph-β-D-GalNAc] |  | 0.0 nmol/min/mL |  | 
CC(=O)N[C@H]1[C@H](Oc2ccc3c(C)cc(=O)oc3c2)O[C@H](CO)[C@H](O)[C@@H]1O [4-Me-lumb-β-D-GalNAc] |  | 0.0 nmol/min/mL |  | 
Lc3Cer |  |  |  | acceptor substrate of soluble β4Gal-T2 activity (in words) (β4Gal-T2): utilised
Bz-*-D-GalNAc |  | 0.0 nmol/min/mL |  | 
CC(=O)N[C@H]1[C@@H](OCc2ccccc2)O[C@H](CO)[C@@H](O)[C@@H]1O [Bz-α-D-GlcNAc] | 0.4 nmol/min/mL | 1.1 nmol/min/mL | 1.7 nmol/min/mL | 
β-D-GlcNAC-1-(FAPGSYPAL) (also: O-linked β-D-GlcNAc, site not given here) [synthetic O-linked βGlcNAc-glycopeptide] |  |  |  | β4Gal-T2 activity with acceptor substrate (β4Gal-T2; glycopeptides at 0.1 mM): 1.3 nmol/min/mL; β4Gal-T3 activity with acceptor substrate (β4Gal-T3; glycopeptides at 0.1 mM): 0.9 nmol/min/mL
Bz-2-(2-β-D-GlcNAc)-α-D-GlcNAc | 9.9 nmol/min/mL | 2.6 nmol/min/mL | 1.3 nmol/min/mL | 
COC1OC(COC2OC(CO)C(O)C(O)C2NC(C)=O)C(O)C(O)C1O [β-D-CLcNAc-(1-6)-α-D-Man-1-OMe] | 8.5 nmol/min/mL | 11.3 nmol/min/mL |  | 
